The source of these data is patent US8809376B2, “Indanyloxydihydrobenzofuranylacetic acids” (Boehringer Ingelheim International GmbH, priority 2012, dated 2014).

T1 sequence (O14842 whole entry): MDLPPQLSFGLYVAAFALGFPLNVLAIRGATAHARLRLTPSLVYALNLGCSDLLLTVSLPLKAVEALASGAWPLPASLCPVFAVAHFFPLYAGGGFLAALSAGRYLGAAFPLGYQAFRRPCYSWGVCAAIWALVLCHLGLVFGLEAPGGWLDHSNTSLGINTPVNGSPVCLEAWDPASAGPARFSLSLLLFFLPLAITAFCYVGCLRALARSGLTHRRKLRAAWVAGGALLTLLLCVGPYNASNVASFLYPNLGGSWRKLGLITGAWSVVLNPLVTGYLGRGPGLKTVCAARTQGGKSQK

One test addresses T1, human GPR40 receptor (Homo sapiens, UniProt O14842). Briefly: Assay I: IP1 accumulation (IPOne assay system) in 1321N1 cells stably expressing human GPR40 receptor. Type of test: cell-based. The conditions noted are these: stimulated 1 hour at 37° C., 10% CO2, LiCl 50 mM. On the procedure: IP1 accumulation measurements using the IPOne assay system—1321N1 cells stably expressing human GPR40 receptor (Euroscreen, Belgium) are seeded 24 h before the assay in black clear-bottom collagen-coated 384-well plates in culture medium containing 10% FCS, 1% Na-Pyruvate and 400 μg/mL G418. IP1 is assayed according to the Manufacturer's description (Cisbio Bioassays, France). In brief, the assay is started by substitution of the culture medium by stimulation buffer (Hepes 10 mM, CaCl2 1 mM, MgCl2 0.5 mM, KCl 4.2 mM, NaCl 146 mM and glucose 5.5 mM, pH 7.4) without LiCl. Cells are stimulated for 1 hour at 37° C., 10% CO2 by addition of the compounds that are diluted in stimulation buffer containing LiCl yielding a final LiCl concentration of 50 mM. Assays are stopped by adding HTRF-conjugates (IP1-d2 and Anti-IP1 cryptate Tb) and lysis buffer, provided by the manufacturer. After an incubation time of 1 hour at room temperature plates are measured using an EnVision™, Perkin Elmer. The obtained fluorescence ratios at 665/615 nM are then used to calculate the pEC50 values using GraphPad Prism 5 (Graphpad Software Inc, USA) by interpolation using an IP1 reference curve and subsequent sigmoidal curve fitting allowing for a variable hill slope.
For orientation: EC50 means the midpoint of the concentration-response curve. A higher EC50 goes with lower potency in that assay. On to `N#Cc1cccc(Cc2c(C#N)ccc3c2CC[C@H]3Oc2ccc3c(c2)OC[C@H]3CC(=O)O)c1` [Example 9, {(S)-6-[(R)-5-Cyano-4-(3-cyano-benzyl)-indan-1-yloxy]-2,3-dihydro-benzofuran-3-yl}-acetic acid], for which a half-maximal effect (EC50) was put at 29 nM.
In turn, `C[S+]([O-])c1ccc(Cc2c(C#N)ccc3c2CC[C@H]3Oc2ccc3c(c2)OC[C@H]3CC(=O)O)cc1` (stereo partly drawn) [Example 12, {(S)-6-[(R)-5-Cyano-4-(4-methylsulfinyl-benzyl)-indan-1-yloxy]-2,3-dihydro-benzofuran-3-yl}-acetic acid] displayed an EC50 of 479 nM.
The same measure, in the same setting: the same measure for `Cc1ccccc1Cc1c(C#N)ccc2c1CC[C@H]2Oc1ccc2c(c1)OC[C@H]2CC(=O)O` [Example 6, {(S)-6-[(R)-5-Cyano-4-(2-methyl-benzyl)-indan-1-yloxy]-2,3-dihydro-benzofuran-3-yl}-acetic acid]: 8 nM.
Same read-out and setting: in the case of `O=C(O)C[C@@H]1COc2cc(O[C@@H]3CCc4c3ccc(C(F)(F)F)c4Cc3ccccc3)ccc21` [Example 10, {(S)-6-[(R)-4-Benzyl-5-trifluoromethyl-indan-1-yloxy]-2,3-dihydro-benzofuran-3-yl}-acetic acid] it was 3 nM.

For a further test, the target named is T1, human GPR40 receptor. Kind of test: Assay II: IP1 accumulation (IPOne assay system) in 1321N1 cells stably expressing human GPR40 receptor. Type of test: cell-based. The conditions noted are these: stimulated 1 h at 37° C., 5% CO2, LiCl 50 mM. On the procedure: IP1 accumulation measurements using the IPOne assay system—1321N1 cells stably expressing human GPR40 receptor (Euroscreen, Belgium) are seeded 24 h before the assay in white 384-well plates in culture medium containing 10% FCS, 1% Na-Pyruvate and 400 μg/mL G418. IP1 is assayed according to the manufacturer's description (Cisbio Bioassays, France). In brief, the assay is started by substitution of the culture medium by stimulation buffer (Hepes 10 mM, CaCl2 1 mM, MgCl2 0.5 mM, KCl 4.2 mM, NaCl 146 mM, glucose 5.5 mM and LiCl 50 mM, pH 7.4). Cells are stimulated for 1 h at 37° C., 5% CO2 by addition of the compounds that are diluted in stimulation buffer containing LiCl. Assays are stopped by adding HTRF-conjugates (IP1-d2 and Anti-IP1 cryptate Tb) and lysis buffer, provided by the manufacturer. After an incubation time of 1 h at room temperature plates are measured using an EnVision™, Perkin Elmer. The obtained fluorescence ratios at 665/615 […] are then used to calculate the pEC50 values using Assay Explorer 3.3 Software (Accelrys, Inc.) by interpolation using an IP1 reference curve and subsequent sigmoidal curve fitting allowing for a variable hill slope.
In turn, `N#Cc1ccc2c(c1Cc1ccccc1F)CC[C@H]2Oc1ccc2c(c1)OC[C@H]2CC(=O)O` [Example 22, {(S)-6-[(R)-5-Cyano-4-(2-fluoro-benzyl)-indan-1-yloxy]-2,3-dihydro-benzofuran-3-yl}-acetic acid] yielded a concentration for a half-maximal effect (EC50) of 6 nM.
Same read-out and setting: the same measure for `O=C(O)C[C@@H]1COc2cc(O[C@@H]3CCc4c(Cc5ccc(F)cc5F)ccc(F)c43)ccc21` [Example 21, {(S)-6-[(R)-4-(2,4-Difluoro-benzyl)-7-fluoro-indan-1-yloxy]-2,3-dihydrobenzofuran-3-yl}-acetic acid]: 15 nM; for `N#Cc1ccc2c(c1Cc1c(F)cccc1F)CC[C@H]2Oc1ccc2c(c1)OC[C@H]2CC(=O)O` [Example 28, {(S)-6-[(R)-5-Cyano-4-(2,6-difluoro-benzyl)-indan-1-yloxy]-2,3-dihydro-benzofuran-3-yl}-acetic acid]: 5 nM; for `N#Cc1cccc(Cc2c(C(F)(F)F)ccc3c2CC[C@H]3Oc2ccc3c(c2)OC[C@H]3CC(=O)O)c1` [Example 34, {(S)-6-[(R)-4-(3-Cyano-benzyl)-5-trifluoromethyl-indan-1-yloxy]-2,3-dihydrobenzofuran-3-yl}-acetic acid]: 4 nM.
For `CS(=O)(=O)c1ccc(Cc2c(C(F)(F)F)ccc3c2CC[C@H]3Oc2ccc3c(c2)OC[C@H]3CC(=O)O)cc1` [Example 17, {(S)-6-[(R)-4-(4-Methylsulfonyl-benzyl)-5-trifluoromethyl-indan-1-yloxy]-2,3-dihydro-benzofuran-3-yl}-acetic acid], the EC50 turned out to be 24 nM.
Same read-out and setting: in the case of `O=C(O)C[C@@H]1COc2cc(O[C@@H]3CCc4c3ccc(C(F)(F)F)c4Cc3ccc(F)cc3F)ccc21` [Example 26, {(S)-6-[(R)-4-(2,4-Difluoro-benzyl)-5-trifluoromethyl-indan-1-yloxy]-2,3-dihydrobenzofuran-3-yl}-acetic acid] it was 2 nM.
The same measure, in the same setting: the same measure for `O=C(O)C[C@@H]1COc2cc(O[C@@H]3CCc4c3ccc(C(F)(F)F)c4Cc3ccc(F)cc3)ccc21` [Example 30, {(S)-6-[(R)-4-(4-Fluoro-benzyl)-5-trifluoromethyl-indan-1-yloxy]-2,3-dihydrobenzofuran-3-yl}-acetic acid]: 2 nM; for `O=C(O)C[C@@H]1COc2cc(O[C@@H]3CCc4c(Cc5cc(F)cc(F)c5)ccc(F)c43)ccc21` [Example 18, {(S)-6-[(R)-4-(3,5-Difluoro-benzyl)-7-fluoro-indan-1-yloxy]-2,3-dihydrobenzofuran-3-yl}-acetic acid]: 27 nM.
Molecule `COc1ccc(OC)c(Cc2c(C(F)(F)F)ccc3c2CC[C@H]3Oc2ccc3c(c2)OC[C@H]3CC(=O)O)c1` [Example 40, {(S)-6-[(R)-4-(2,5-Dimethoxy-benzyl)-5-trifluoromethyl-indan-1-yloxy]-2,3-dihydrobenzofuran-3-yl}-acetic acid] yielded an EC50 of 5 nM. This EC50 is about 5.4-fold lower than that of the molecule before.
The same measure, in the same setting: the same measure for `Cc1ccccc1Cc1c(C(F)(F)F)ccc2c1CC[C@H]2Oc1ccc2c(c1)OC[C@H]2CC(=O)O` [Example 35, {(S)-6-[(R)-4-(2-Methyl-benzyl)-5-trifluoromethyl-indan-1-yloxy]-2,3-dihydrobenzofuran-3-yl}-acetic acid]: 2 nM; for `N#Cc1ccccc1Cc1c(C(F)(F)F)ccc2c1CC[C@H]2Oc1ccc2c(c1)OC[C@H]2CC(=O)O` [Example 36, {(S)-6-[(R)-4-(2-Cyano-benzyl)-5-trifluoromethyl-indan-1-yloxy]-2,3-dihydrobenzofuran-3-yl}-acetic acid]: 2 nM; for `COc1ccc(Cc2c(C(F)(F)F)ccc3c2CC[C@H]3Oc2ccc3c(c2)OC[C@H]3CC(=O)O)cn1` [Example 38]: 1 nM.
The same measure, in the same setting: the same measure for `O=C(O)C[C@@H]1COc2cc(O[C@@H]3CCc4c(Cc5c(F)cccc5F)ccc(F)c43)ccc21` [Example 19, {(S)-6-[(R)-4-(2,6-Difluoro-benzyl)-7-fluoro-indan-1-yloxy]-2,3-dihydrobenzofuran-3-yl}-acetic acid]: 23 nM; for `COc1cccc(Cc2c(C(F)(F)F)ccc3c2CC[C@H]3Oc2ccc3c(c2)OC[C@H]3CC(=O)O)c1` [Example 27, {(S)-6-[(R)-4-(3-Methoxy-benzyl)-5-trifluoromethyl-indan-1-yloxy]-2,3-dihydrobenzofuran-3-yl}-acetic acid]: 5 nM; for `N#Cc1ccc2c(c1Cc1cccc(F)c1F)CC[C@H]2Oc1ccc2c(c1)OC[C@H]2CC(=O)O` [Example 32, {(S)-6-[(R)-5-Cyano-4-(2,3-difluoro-benzyl)-indan-1-yloxy]-2,3-dihydro-benzofuran-3-yl}-acetic acid]: 8 nM.
Still for that read-out and setting: the same measure for `O=C(O)C[C@@H]1COc2cc(O[C@@H]3CCc4c3ccc(C(F)(F)F)c4Cc3ccc(O)cc3)ccc21` [Example 25, {(S)-6-[(R)-4-(4-Hydroxy-benzyl)-5-trifluoromethyl-indan-1-yloxy]-2,3-dihydrobenzofuran-3-yl}-acetic acid]: 2 nM; for `N#Cc1ccc2c(c1Cc1ccc(F)cc1)CC[C@H]2Oc1ccc2c(c1)OC[C@H]2CC(=O)O` [Example 23, {(S)-6-[(R)-5-Cyano-4-(4-fluoro-benzyl)-indan-1-yloxy]-2,3-dihydro-benzofuran-3-yl}-acetic acid]: 11 nM; for `N#Cc1ccc(Cc2ccc(F)c3c2CC[C@H]3Oc2ccc3c(c2)OC[C@H]3CC(=O)O)cc1` [Example 20, {(S)-6-[(R)-4-(4-Cyano-benzyl)-7-fluoro-indan-1-yloxy]-2,3-dihydrobenzofuran-3-yl}-acetic acid]: 589 nM.
Regarding `O=C(O)C[C@@H]1COc2cc(O[C@@H]3CCc4c3ccc(C(F)(F)F)c4Cc3cccc(F)c3)ccc21` [Example 29, {(S)-6-[(R)-4-(3-Fluoro-benzyl)-5-trifluoromethyl-indan-1-yloxy]-2,3-dihydrobenzofuran-3-yl}-acetic acid], the EC50 is 3 nM. Compared with the last molecule, the EC50 is about 200-fold lower.
On the same count and under the same terms, in the case of `N#Cc1ccc2c(c1Cc1cccc(F)c1)CC[C@H]2Oc1ccc2c(c1)OC[C@H]2CC(=O)O` [Example 24, {(S)-6-[(R)-5-Cyano-4-(3-fluoro-benzyl)-indan-1-yloxy]-2,3-dihydro-benzofuran-3-yl}-acetic acid] it was 12 nM; in that of `COc1ccc(Cc2c(C(F)(F)F)ccc3c2CC[C@H]3Oc2ccc3c(c2)OC[C@H]3CC(=O)O)cc1` [Example 33, {(S)-6-[(R)-4-(4-Methoxy-benzyl)-5-trifluoromethyl-indan-1-yloxy]-2,3-dihydrobenzofuran-3-yl}-acetic acid], 2 nM; in that of `O=C(O)C[C@@H]1COc2cc(O[C@@H]3CCc4c3ccc(C(F)(F)F)c4Cc3ccc(Cl)cc3)ccc21` [Example 37, {(S)-6-[(R)-4-(4-Chloro-benzyl)-5-trifluoromethyl-indan-1-yloxy]-2,3-dihydrobenzofuran-3-yl}-acetic acid], 4 nM.
For `O=C(O)C[C@@H]1COc2cc(O[C@@H]3CCc4c3ccc(C(F)(F)F)c4Cc3ccccc3F)ccc21` [Example 31, {(S)-6-[(R)-4-(2-Fluoro-benzyl)-5-trifluoromethyl-indan-1-yloxy]-2,3-dihydrobenzofuran-3-yl}-acetic acid], the EC50 came to 2 nM.
